The source of these data is patent publication US10815208B2, “Method for preparing 2-hydroxyl-4-(2, 3-disubstituted benzyloxy)-5-substituted benzaldehyde derivative” (Institute of Materia Medica, Chinese Academy of Medical …, priority 2016, dated 2020).

The target of one assay is PD-1/PD-L1 (Homo sapiens (Human), UniProt Q9NZQ7). As to the kind of experiment: Cisbio HTRF binding assay, PD-1/PD-L1 small molecule inhibitor screening. Particulars: for IC50: HTRF, PD-1 (HIS tag) / PD-L1 (hFc tag), 8-10 concentrations. From the text:
In vitro activity evaluation: Cisbio HTRF binding assay kit was applied for the detection method of in vitro enzymology level.
Screening Principles and Methods of PD-1/PD-L1 Small Molecule Inhibitors
1) Principle: PD-1 protein is with HIS tag, and PD-1 ligand PD-L1 is with hFc tag. Eu labeled anti-hFc antibody and XL665 labeled anti-HIS antibody are combined with the above two label proteins respectively. After laser excitation, energy can be transferred from donor Eu to receptor XL665, allowing XL665 to glow.
2) Experimental method: Reagents should be dispensed in the following order. For 384-well white ELISA plate, 2 μl of diluent or target compound diluted with diluent was added to each well, and then 4 μl of PD-1 protein and 4 μl of PD-L1 protein were added per well, incubated for 15 min at the room temperature; and 10 μl of anti-Tag1-Eu3^+ and anti-Tag2-XL665 was added per well and incubated for 1 h at the room temperature and the fluorescence signals at 665 nm and 620 nm were measured. HTRF rate=(665 nm/620 nm)*10^4. 8-10 concentrations were detected for each compound and IC50 was calculated by Graphpad software.

Assay [1] has as its system advanced triple-negative breast cancer. The following applies: in vivo; cited from earlier work.
In assay [2] the test system is advanced Hodgkin's lymphoma (HL). The following applies: advanced HL patients with no treatment response to any of the approved drugs; cited from earlier work.
Assay [3] relates to pleural mesothelioma (PM). Particulars: 25 patients with pleural mesothelioma (PM); cited from earlier work.

Sequence of PD-1/PD-L1 (Q9NZQ7 19-238): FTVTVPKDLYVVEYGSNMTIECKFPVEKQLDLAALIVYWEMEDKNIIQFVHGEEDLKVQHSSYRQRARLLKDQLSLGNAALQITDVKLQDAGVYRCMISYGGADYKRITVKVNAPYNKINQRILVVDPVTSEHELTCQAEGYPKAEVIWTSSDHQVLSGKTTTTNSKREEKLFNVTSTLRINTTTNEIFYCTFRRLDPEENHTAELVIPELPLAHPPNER

For `CC(=O)NCCNCc1cc(Cl)c(OCc2cccc(-c3ccccc3)c2Br)cc1OCc1cccc(C#N)c1` [Example 2, N-acetylaminoethyl-4-(2-bromo-3-phenylbenzyloxy)-2-(3-cyanobenzyloxy)-5-chlorobenzylamine], at PD-1/PD-L1, the “inhibition of the interaction between PD-1 and PD-L1” value is on record as “significantly inhibit”; the IC50 is 62.3 nM.

Turning to “(R)—N-[2-(5-cyanopyridine-3-methyleneoxy)-4-(2-methyl-3-(2,3-dihydrobenzo[b][1,4]dioxin-6-yl)benzyloxy)-5-chlorobenzyl]-3-(pyridin-3-yl)alanine [Example 6]”, on PD-1/PD-L1, the “inhibition of the interaction between PD-1 and PD-L1” value is “significantly inhibit”; the IC50 worked out at 35 nM.

Take “MPDL3280A: Roche's PD-L1 monoclonal antibody”: in assay [1], the “effect in advanced triple-negative breast cancer” value is “long-lasting effect”.

nivolumab [Opdvio]: the treatment response entry in assay [2] was “complete remission”.

Regarding pembrolizumab [Keytruda], in assay [3], the disease control rate was 76% and the “overall response rate (ORR)” value is 28%. Besides, in assay [2], the treatment response entry is “complete remission”.
